Drawing on paper PMC12652692, “Synthesis and In Vitro Anticancer Evaluation of Novel Phosphonium Derivatives of Chrysin” (International Journal of Molecular Sciences, 2025), this text covers GI50 for six compounds.

One may read the GI50 as the concentration giving 50% growth inhibition.

Holding throughout (experiment): NCI60 five-dose screen
What all share (type): cell-based

One assay deals with T-47D. The conditions noted are these: Homo sapiens, T47D, Breast Cancer. How it is done:
(§1) Since all new conjugates (3a–h) had notable antiproliferative activities on several tumor cell lines in the course of the one-dose screening, they were subjected to a five-dose test. […] J. Mol. Sci. 2025, 26, 11063 10 of 10 S.3. NCI60 Screening A detailed description of the NCI screening procedures can also be found on the website of NCI [39], and in our previous work. S.3.1. One-Dose Screen All candidates were examined at first at a single high dose (10 μM) in the full NCI60 cell panel. The value reported for the one-dose test is growth relative to the no-drug control and relative to the time zero number of cells. This made possible the disclosure of both growth inhibition (numbers between 0 and 100) and lethality (numbers less than 0). For example, a value of 100 means no growth inhibition. A value of 20 would mean 80% growth inhibition. A value of 0 means no net growth over the course of the analysis. A value of −20 would mean 20% lethality. A value of −100 means all cells are dead. S.3.2. […] The human tumor cell lines of the cancer screening panel were grown in RPMI 1640 medium containing 5% fetal bovine serum and 2 mM l-glutamine. Characteristically, cells were injected in 96-well microtiter plates in 0.1 mL at plating densities ranging from 5000 to 40,000 cells/well, depending on the doubling time of individual cell lines. After cell inoculation, the microtiter plates were incubated at 37 °C, 5% carbon dioxide, 95% air, and 100% relative humidity for 24 hours before the addition of tested compounds. After 24 hours, 2 plates of each cell line were fixed in situ with Cl3COOH (TCA), to represent a measurement of the cell population for each cell line at the time of drug addition (tz). Tested compounds were solubilized in DMSO at 400-fold the desired final maximum test concentration and stored frozen before application. In the course of the drug addition, an aliquot of frozen concentrate was thawed and diluted to twice the desired final maximum test concentration with a complete medium containing 50 μg mL−1 gentamicin. Additional four, 10-fold or ½ log serial dilutions were produced to furnish a total of five drug concentrations plus control. Aliquots of 0.1 mL of these different drug dilutions were added to the appropriate microtiter wells already containing 0.1 mL of medium, resulting in the required final drug concentrations. Following drug addition, the plates were incubated at 37 °C, 5% carbon dioxide, 95% air, and 100% relative humidity for an additional 48 hours. For adherent cells, the test was finished by the addition of cold Cl3COOH. Cells were fixed in situ by the addition of 50 μL of cold 50% (w/v) Cl3COOH, and incubated at 4 °C for 1 hour. The supernatant was discarded, and the plates were washed with H2O (5×) and dried in air. Sulforhodamine B (SRB) solution (0.1 mL) at 0.4% (w/v) in 1% CH3COOH was added to each well, and plates were incubated at RT for 10 min. After staining, the unbound dye was removed by washing five times with 1% CH3COOH, and the plates were dried in the air. The bound stain is afterward solubilized with a 10 mM trizma base, and the absorbance is read on an automated plate reader at λ = 515 nm. Utilizing the seven absorbance measurements [time zero (tz), control growth (c), and test growth in the presence of the drug at the five concentration levels (ti)], the percentage growth was determined at each of the drug concentration levels. Growth inhibition (%) was calculated as: [(ti − tz)/(c − tz)] × 100, for concentrations where ti ≥ tz (1) [(ti − tz)/(tz)] × 100, for concentrations where ti < tz. (2) Three dose‒response parameters were calculated as follows. GI50 (growth inhibition of 50%) was determined from Equation (3), which is the drug concentration resulting in a 50% reduction in the net protein increase (as measured by SRB staining) in control cells in the course of the drug incubation. [(ti − tz)/(c − tz)] × 100 = 50 (3)

Another assay deals with SK-MEL-28. Conditions: Homo sapiens; SK-MEL-28, Melanoma. How it is done:
as §1

A further assay concerns IGROV1. The conditions noted are these: Homo sapiens, IGROV-1; IGROV1, Ovarian Cancer. How it is done: as §1
The test system of a further assay is NCI-H322M. Conditions: Homo sapiens, Non-small-Cell Lung Cancer. How it is done:
as §1

In another assay the test system is NCI-H522. The conditions noted are these: Homo sapiens; NCI-H522, Non-small-Cell Lung Cancer. How it is done: as §1
The test system of a further assay is MALME-3M. The conditions noted are these: Homo sapiens, Melanoma. How it is done: as §1
The next assay deals with OVCAR-3. Conditions: Homo sapiens; OVCAR-3, Ovarian Cancer. How it is done:
as §1

The next assay relates to UO-31. The conditions noted are these: Homo sapiens; UO-31, Renal Cancer. How it is done:
as §1

The test system of another assay is NCI/ADR-RES. Conditions: Homo sapiens, Ovarian Cancer. How it is done:
as §1

In a further assay the test system is SF-268. The conditions noted are these: Homo sapiens; SF-268, CNS Cancer. How it is done:
as §1

For a further assay, the system named is HOP-92. Conditions: Homo sapiens; HOP-92, Non-small-Cell Lung Cancer. How it is done: as §1
Another assay has as its system NCI-H226. Conditions: Homo sapiens; NCI-H226, Non-small-Cell Lung Cancer. How it is done: as §1
The next assay deals with DU-145. Conditions: Homo sapiens; DU-145, Prostate Cancer. How it is done: as §1
The next assay relates to M14. Conditions: Homo sapiens; M14, Melanoma. How it is done:
as §1

Another assay has as its system UACC-62. The conditions noted are these: Homo sapiens; UACC-62, Melanoma. How it is done:
as §1

The next assay has as its system RXF 393. The conditions noted are these: Homo sapiens; RXF 393, Renal Cancer. How it is done: as §1
Another assay has as its system MDA-MB-435. Conditions: Homo sapiens; MDA-MB-435, Melanoma. How it is done: as §1
The subject of a further assay is KM12. Conditions: Homo sapiens; KM12, Colon Cancer. How it is done:
as §1

For another assay, the system named is MCF7. The conditions noted are these: Homo sapiens; MCF7, Breast Cancer. How it is done: as §1
Another assay deals with SF-295. The conditions noted are these: Homo sapiens; SF-295, CNS Cancer. How it is done: as §1
The subject of another assay is NCI-H460. The conditions noted are these: Homo sapiens; NCI-H460, Non-small-Cell Lung Cancer. How it is done: as §1
The next assay relates to HCT-116. The conditions noted are these: Homo sapiens; HCT-116, Colon Cancer. How it is done:
as §1

As for `COc1ccc([P+](CCCCOc2cc(O)c3c(=O)cc(-c4ccccc4)oc3c2)(c2ccc(OC)cc2)c2ccc(OC)cc2)cc1` [3c], the GI50 in the assay with T-47D was 302 nM; in the assay with SK-MEL-28 it was 453 nM; with IGROV1, 413 nM; in the assay with NCI-H322M it was 1420 nM; in the assay on NCI-H522 it was 405 nM; in the assay with MALME-3M, 287 nM. Further, the GI50 with OVCAR-3 worked out at 288 nM; in the assay on UO-31 it was 1480 nM; with NCI/ADR-RES, 2600 nM; in the assay on SF-268 it was 351 nM; with HOP-92 it was 252 nM; with NCI-H226 it was 606 nM. In addition, the GI50 worked out at 410 nM in the assay on DU-145; 478 nM in the assay with M14; 317 nM in the assay with UACC-62; 257 nM in the assay with RXF 393; 319 nM in the assay with MDA-MB-435; 207 nM in the assay on KM12. In addition, the GI50 is 407 nM in the assay with MCF7, 1060 nM in the assay with SF-295, 371 nM in the assay with NCI-H460 and 337 nM in the assay on HCT-116.
With `Cc1ccccc1[P+](CCCCOc1cc(O)c2c(=O)cc(-c3ccccc3)oc2c1)(c1ccccc1C)c1ccccc1C` [3g], the GI50 in the assay on T-47D came to 208 nM; in the assay on SK-MEL-28, 323 nM; in the assay on IGROV1 it was 428 nM; with NCI-H322M, 1380 nM; with NCI-H522, 341 nM; with MALME-3M it was 353 nM. For the same compound, the GI50 with OVCAR-3 amounted to 216 nM; with UO-31 it was 1770 nM; with NCI/ADR-RES it was 2140 nM; in the assay with SF-268, 279 nM; in the assay with HOP-92, 255 nM; in the assay with NCI-H226, 399 nM. Further, the GI50 in the assay on DU-145 was determined as 376 nM; in the assay with M14, 335 nM; in the assay on UACC-62, 319 nM; in the assay with MDA-MB-435, 320 nM; in the assay on KM12 it was 280 nM; in the assay on MCF7, 267 nM. Also, the GI50 in the assay on SF-295 came out at 648 nM; in the assay with NCI-H460, 243 nM; in the assay on HCT-116 it was 265 nM.
With `O=c1cc(-c2ccccc2)oc2cc(OCCCC[P+](c3ccccc3)(c3ccccc3)c3ccccc3)cc(O)c12` [3a], the GI50 is 228 nM with T-47D; 474 nM in the assay on SK-MEL-28; 405 nM in the assay with IGROV1; 976 nM in the assay with NCI-H322M; 228 nM in the assay on NCI-H522; 270 nM with MALME-3M. Besides, the GI50 in the assay on OVCAR-3 worked out at 368 nM; with UO-31, 1240 nM; in the assay on NCI/ADR-RES, 3290 nM; in the assay with SF-268 it was 380 nM; with HOP-92, 234 nM; in the assay on NCI-H226 it was 354 nM. The 50% growth inhibitory concentration (GI50) worked out at 507 nM in the assay on DU-145; 378 nM with M14; 292 nM with UACC-62; 225 nM with RXF 393; 299 nM in the assay on MDA-MB-435; 401 nM in the assay on KM12. In addition, the GI50 is 291 nM in the assay on MCF7, 297 nM in the assay on SF-295, 321 nM with NCI-H460 and 297 nM with HCT-116.
Turning to `O=c1cc(-c2ccccc2)oc2cc(OCCCC[P+](C3CCCCC3)(C3CCCCC3)C3CCCCC3)cc(O)c12` [3e], the GI50 in the assay with T-47D turned out to be 397 nM; in the assay on SK-MEL-28, 423 nM; with IGROV1, 774 nM; with NCI-H322M, 1580 nM; with NCI-H522, 457 nM; in the assay on MALME-3M it was 397 nM. Besides, the concentration for 50% growth inhibition (GI50) in the assay on OVCAR-3 came to 381 nM; with UO-31 it was 1610 nM; in the assay with NCI/ADR-RES, 8440 nM; in the assay with SF-268 it was 1040 nM; with HOP-92, 211 nM; in the assay on NCI-H226, 1100 nM. For the same compound, the GI50 in the assay with DU-145 worked out at 1240 nM; with M14, 515 nM; in the assay with UACC-62, 368 nM; in the assay on RXF 393, 461 nM; in the assay with MDA-MB-435, 341 nM; in the assay on KM12, 382 nM. Further, the GI50 with MCF7 was 956 nM; in the assay with SF-295 it was 1400 nM; in the assay with NCI-H460, 957 nM; in the assay on HCT-116 it was 882 nM.
In the case of `COc1c(C)cc([P+](CCCCOc2cc(O)c3c(=O)cc(-c4ccccc4)oc3c2)(c2cc(C)c(OC)c(C)c2)c2cc(C)c(OC)c(C)c2)cc1C` [3f], the GI50 in the assay on T-47D is 121 nM; in the assay with SK-MEL-28, 491 nM; with IGROV1, 346 nM; in the assay on NCI-H322M, 432 nM; with NCI-H522, 221 nM; in the assay with MALME-3M, 310 nM. In addition, the GI50 stood at 334 nM in the assay with OVCAR-3; 277 nM in the assay on UO-31; 1580 nM in the assay on NCI/ADR-RES; 525 nM with SF-268; 165 nM in the assay with HOP-92; 249 nM in the assay on NCI-H226. Also, the GI50 in the assay with DU-145 came out at 339 nM; in the assay with M14 it was 329 nM; with UACC-62 it was 312 nM; in the assay with RXF 393, 191 nM; in the assay on MDA-MB-435, 296 nM; with KM12 it was 195 nM. In addition, the GI50 was 260 nM with MCF7, 240 nM in the assay on SF-295, 304 nM with NCI-H460 and 256 nM in the assay with HCT-116.
As to `O=c1cc(-c2ccccc2)oc2cc(OCCCC[P+](c3ccccc3)(c3ccccc3)c3ccccn3)cc(O)c12` [3h], the GI50 with T-47D came to 259 nM; in the assay with SK-MEL-28, 570 nM; with IGROV1, 653 nM; in the assay on NCI-H322M it was 2040 nM; in the assay with NCI-H522, 320 nM; with MALME-3M, 594 nM. The concentration for 50% growth inhibition (GI50) in the assay with OVCAR-3 amounted to 418 nM; with UO-31, 1540 nM; in the assay with NCI/ADR-RES, 7550 nM; with SF-268 it was 760 nM; in the assay with HOP-92, 346 nM; in the assay on NCI-H226, 1560 nM. Also, the GI50 in the assay with DU-145 stood at 1220 nM; in the assay with M14, 564 nM; in the assay on UACC-62 it was 549 nM; with RXF 393 it was 608 nM; with MDA-MB-435 it was 376 nM; with KM12, 523 nM. In addition, the GI50 was 396 nM in the assay with MCF7, 1360 nM in the assay on SF-295, 801 nM with NCI-H460 and 650 nM in the assay on HCT-116.
